The test system of test [1] is A549. The test is described as follows: Antitumor activity against human A549 cells assessed as cell viability incubated for 72 hrs by MTT assay. The class given is functional, cell-based. The note with it: A549, 72 h.
Test [2] has as its system SK-N-MC. The test is described as follows: Cytotoxicity against human SK-N-MC cells as cell viability by MTT assay. It is filed as functional, cell-based. (In general: Tetrazolium assays rely on reduction of a dye to a coloured formazan, in cell work by metabolically active cells.)
For test [3], the system named is MDA-MB-231. In words: Cytotoxicity against human MDA-MB-231 cells assessed as cell viability by MTT assay. The class given is functional, cell-based.
Test [4] has as its system MCF7. In words: Antitumor activity against human MCF7 cells assessed as cell viability by MTT assay. It is filed as functional, cell-based.
The test system of test [5] is HepG2. In words: Cytotoxicity against human HepG2 cells assessed as cell viability by MTT assay. It is filed as functional, cell-based.
Test [6] has as its system MCF7. In words: Antiproliferative activity against human MCF7 cells assessed as growth inhibition. The class given is functional, cell-based.
The target in test [7] is T1, M-phase inducer phosphatase 2 (Homo sapiens, UniProt P30305).
T1 sequence (P30305 whole entry): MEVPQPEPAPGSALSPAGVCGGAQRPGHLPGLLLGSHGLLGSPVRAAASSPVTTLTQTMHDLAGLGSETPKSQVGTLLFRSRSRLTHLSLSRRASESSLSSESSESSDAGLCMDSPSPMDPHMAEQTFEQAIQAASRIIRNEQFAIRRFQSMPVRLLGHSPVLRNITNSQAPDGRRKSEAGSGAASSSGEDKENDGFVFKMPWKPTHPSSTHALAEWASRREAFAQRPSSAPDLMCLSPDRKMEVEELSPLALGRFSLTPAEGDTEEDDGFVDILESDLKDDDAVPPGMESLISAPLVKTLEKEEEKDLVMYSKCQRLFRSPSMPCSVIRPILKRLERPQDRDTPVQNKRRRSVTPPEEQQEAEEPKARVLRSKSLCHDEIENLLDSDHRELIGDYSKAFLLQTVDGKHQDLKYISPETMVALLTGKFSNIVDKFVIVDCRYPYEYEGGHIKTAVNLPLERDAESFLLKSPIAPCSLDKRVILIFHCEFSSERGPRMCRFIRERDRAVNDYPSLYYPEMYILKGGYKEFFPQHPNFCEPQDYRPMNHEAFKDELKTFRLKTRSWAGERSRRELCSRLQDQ
The test is described as follows: Inhibition of human CDC25B phosphatase.

The nature of test [8]: Antiproliferative activity against human hTERT-HME1 cells assessed as growth inhibition. It is filed as functional, cell-based.
In test [9] the test system is MDA-MB-231. In words: Antiproliferative activity against human MDA-MB-231 cells assessed as growth inhibition. It is filed as functional, cell-based.
Test [10] has as its target T2, M-phase inducer phosphatase 1 (Homo sapiens, UniProt P30304).
T2 sequence (P30304 whole entry): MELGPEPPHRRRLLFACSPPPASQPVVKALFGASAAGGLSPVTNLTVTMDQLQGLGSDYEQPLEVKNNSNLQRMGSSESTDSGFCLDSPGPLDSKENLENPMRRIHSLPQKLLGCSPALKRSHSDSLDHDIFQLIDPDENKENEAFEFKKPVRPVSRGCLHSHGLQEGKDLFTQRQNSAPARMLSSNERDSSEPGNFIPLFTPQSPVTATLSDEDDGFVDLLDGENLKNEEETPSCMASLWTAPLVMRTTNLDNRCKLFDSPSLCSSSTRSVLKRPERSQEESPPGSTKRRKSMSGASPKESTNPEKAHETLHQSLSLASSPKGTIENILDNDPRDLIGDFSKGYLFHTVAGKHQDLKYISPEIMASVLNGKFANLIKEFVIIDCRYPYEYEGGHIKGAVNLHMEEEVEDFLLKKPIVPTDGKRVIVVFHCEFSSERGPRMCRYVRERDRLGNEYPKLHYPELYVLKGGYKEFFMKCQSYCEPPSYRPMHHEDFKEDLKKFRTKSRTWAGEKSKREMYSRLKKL
The test is described as follows: Inhibition of human CDC25A phosphatase.

Test [11] has as its target T3, M-phase inducer phosphatase 3 (Homo sapiens, UniProt P30307).
T3 sequence (P30307 whole entry): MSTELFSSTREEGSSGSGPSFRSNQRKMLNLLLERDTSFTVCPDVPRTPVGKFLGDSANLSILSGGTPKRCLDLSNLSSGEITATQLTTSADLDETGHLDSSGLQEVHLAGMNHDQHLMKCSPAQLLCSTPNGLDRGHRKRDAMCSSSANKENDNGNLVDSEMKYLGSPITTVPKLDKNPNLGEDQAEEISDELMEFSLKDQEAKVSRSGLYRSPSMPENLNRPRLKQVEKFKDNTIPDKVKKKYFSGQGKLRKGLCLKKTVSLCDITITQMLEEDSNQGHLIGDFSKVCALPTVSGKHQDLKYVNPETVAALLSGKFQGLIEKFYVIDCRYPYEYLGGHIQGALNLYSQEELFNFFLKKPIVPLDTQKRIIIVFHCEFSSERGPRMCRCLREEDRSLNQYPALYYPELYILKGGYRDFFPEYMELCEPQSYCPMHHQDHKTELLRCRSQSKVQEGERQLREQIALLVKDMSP
In words: Inhibition of human CDC25C phosphatase.

The test system of test [12] is DU-145. In words: Antiproliferative activity against human DU145 cells assessed as growth inhibition by tryphan blue exclusion method. It is filed as functional.
Test [13] deals with NCI-H460. The test is described as follows: Antiproliferative activity against human NCI-H460 cells assessed as growth inhibition. The class given is functional, cell-based.
The test system of test [14] is MCF7. In words: Antiproliferative activity against human MCF7 cells. It is filed as functional, cell-based.
For test [15], the system named is MCF7. In words: Cytotoxicity against human MCF7 cells assessed as cell viability incubated for 72 hrs by SRB assay. The class given is functional, cell-based. The note with it: MCF7, 72 h.
Test [16] deals with HCT-15. In words: Cytotoxicity against human HCT15 cells assessed as cell viability incubated for 72 hrs by SRB assay. The class given is functional, cell-based. The settings on record: HCT-15, 72 h. Background: In SRB staining, fixed cells bind dye roughly in proportion to their protein.
Test [17] in a line: Antiproliferative activity against human BT20 cells assessed as growth inhibition. It is filed as functional. The note with it: BT-20.
Test [18] deals with DU-145. In words: Antiproliferative activity against human DU145 cells assessed as growth inhibition. It is filed as functional.
Test [19] concerns K562. In words: Antiproliferative activity against human K562 cells assessed as growth inhibition. It is filed as functional.
The test system of test [20] is NCI-H157. The test is described as follows: Antiproliferative activity against human NCI-H157 cells assessed as growth inhibition. It is filed as functional.
Test [21] in a line: Antiproliferative activity against human DLD1 cells assessed as growth inhibition. The class given is functional. The note with it: DLD-1.
Test [22] has as its system K562. In words: Antitumor activity against human K562 cells assessed as cell viability by MTT assay. The class given is functional, cell-based.
For test [23], the system named is KB. The test is described as follows: Antiproliferative activity against human KB cells assessed as growth inhibition. The class given is functional, cell-based.
Test [24] concerns HepG2. The test is described as follows: Cytotoxicity against human HepG2 cells assessed as cell viability incubated for 72 hrs by SRB assay. The class given is functional, cell-based. The note with it: HepG2, 72 h.

Molecules are shown by their SMILES. Converted amounts (≈) assume the structure as drawn. Some results are limits rather than exact numbers.

With `COc1cccc(C2c3cc(C)ccc3Nc3c2c(=O)oc2ccccc32)c1` (stereo not drawn), the IC50 in test [1] amounted to 0.05 µM.
Regarding `O=c1oc2ccccc2c2c1C(c1cc(Br)ccc1O)SCCN2` (stereo not drawn), the half-inhibitory concentration (IC50) is 3.75 µg/mL (≈ 9.28 µM) in test [2], 3.75 µg/mL (≈ 9.28 µM) in test [3] and 3.75 µg/mL in test [4].
In the case of `Cc1cc(-c2cc3cc(Cl)ccc3oc2=O)n(-c2nc(-c3ccc(Cl)cc3)cs2)n1`, in test [5], the IC50 is at most 3.25 µM.
For the molecule `COc1ccc2c(CSC3=CC(=O)c4ccccc4C3=O)cc(=O)oc2c1`, the IC50 was at most 11 µM in test [6]; at most 9 µM in test [7]; 18 µM in test [8]; at most 11 µM in test [9]; at most 9 µM in test [10]; at most 9 µM in test [11].
In the case of `COc1ccc(-c2csc(-n3nc(C)cc3-c3cc4cc(Cl)ccc4oc3=O)n2)cc1`, the half-inhibitory concentration (IC50) in [5] was at most 3.25 µM.
As to `NCCCCCCCCNC(=O)c1c(O)c2ccccc2oc1=O`, the GI50 in [12] was below 10 µM.
Take `C/C(=N/NC(=O)c1cc2ccccc2oc1=O)c1cccnc1`: in test [13], the IC50 amounted to 10 µM.
In turn, `Cc1cc(C(=O)c2ccccc2Br)ccc1OCC(=O)NNC(=O)c1cc2ccccc2oc1=O` displayed an IC50 in test [14] below 10 µM.
For `CCOC1(c2ccccc2)Oc2c(c(=O)oc3ccccc23)/C1=C\C(=O)c1ccccc1` (stereo not drawn), the IC50 in test [15] and in test [16] was 8 µM in each case.
In turn, `Cc1ccc(C(=O)c2cc(F)c(OCC(=O)NNC(=O)c3cc4ccccc4oc3=O)c(Cl)c2)cc1` came in with a half-inhibitory concentration (IC50) in test [14] below 10 µM.
For `O=c1oc2c(Br)cccc2cc1S(=O)(=O)Nc1ccc(Br)cc1`, the 50% growth inhibitory concentration (GI50) in [17], in test [18], in test [19], in test [20] and in [21] was 12 µM each time.
For `Cc1cc(C(=O)c2ccc(Cl)cc2Cl)ccc1OCC(=O)NNC(=O)c1cc2ccccc2oc1=O`, the half-inhibitory concentration (IC50) in test [14] is below 10 µM.
On to `CCc1nc([N+](=O)[O-])c(N2CCN(/C(=N/Nc3ccc4c(C)cc(=O)oc4c3)C(C)=O)CC2)n1Cc1ccccc1`, for which the IC50 amounted to 9.3 µM in test [22] and 20.2 µM in test [4].
In the case of `O=C(/C=C1\c2c(c3ccccc3oc2=O)OC1(c1ccccc1)N1CCCC1)c1ccccc1` (stereo not drawn), the IC50 in [15] and in test [16] was 8 µM throughout.
On to `COc1cc(OC)cc(-c2cc3ccc(OC(C)=O)c(OC(C)=O)c3oc2=O)c1`, for which, in test [23], the IC50 came to 5.18 µM.
On to `CC1=CP(C(c2ccccc2)(c2ccccc2)c2ccccc2)Oc2c1c(=O)oc1ccccc21` (stereo not drawn), for which the half-maximal inhibitory concentration (IC50) in test [15] and in test [24] was at most 3.89 µg/mL each time.
Take `Cc1ccc2c(c1)C(c1ccccc1)c1c(c3ccccc3oc1=O)N2` (stereo not drawn): the IC50 in test [1] came to 0.14 µM; in test [4], 0.52 µM.

What is called IC50 is the concentration needed to halve the response being measured. A word on the GI50: it is the concentration at which growth is held to half of that of the control.

For the origin of these results see ChEMBL document CHEMBL3621131, “Current developments of coumarin-based anti-cancer agents in medicinal chemistry” (Eur J Med Chem, 2015).
